Some test systems named below: NCI-H522; OVCAR-4; MCF7; RXF 393; CAKI-1; T47D; OVCAR-3; MDA-MB-435; SNB-75; HOP-92; OVCAR-8; NCI-H460; SK-OV-3; HCT-116; HCT-15; MDA-N; MOLT-4; TK-10; HCC 2998.
Common to all, as to assay: inhibition of tumour cell growth, NCI panel, 48 h

The text below walks through data of ChEMBL document CHEMBL1201862, “PubChem BioAssay data set” (2004).

Several values for one entry are separate records, joined by “and”; a condition that tells them apart may be missing. Equal entries are not always repeated.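 Where inhibition never reached the appropriate level, the endpoint shown equals the highest concentration tested. Otherwise, values were interpolated linearly from a five-concentration, 48-hour dose response in 96-well plates. Abbreviation: GI50, concentration required for 50% inhibition of growth.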 Activity calls are given as the source filed them. Cut-off read from the data, not from the text of the source: active = GI50 up to about 1.1 µM and inactive = higher. Some results are limits rather than exact numbers.

As to `COC(=O)C1=C(C)NC2=C(C(=O)c3ccccc32)C1c1c[nH]nc1-c1ccccc1` (stereo not given), the GI50 with NCI-H522 is 19.7 µM (inactive); in the test on OVCAR-4, 54.7 µM (inactive); with MCF7 it was 44.7 µM (inactive); in the test with RXF 393, 43.4 µM (inactive); in the test on CAKI-1 it was 63.8 µM (inactive); with T47D, 90.6 µM (inactive). Besides, the GI50 with OVCAR-3 is 48.6 µM (inactive); in the test on MDA-MB-435, 57.4 µM (inactive); in the test on SNB-75, 13.3 µM (inactive); in the test on HOP-92, > 100 µM (inactive); in the test with OVCAR-8, 38.1 µM (inactive); in the test on NCI-H460, 51.9 µM (inactive). In addition, the GI50 in the test on SK-OV-3 is > 100 µM (inactive); in the test on HCT-116, > 100 µM (inactive); with HCT-15 it was 62.5 µM; with MDA-N, 51.5 µM (inactive); in the test on MOLT-4, 24.8 µM (inactive).
For `CN(C)CCCn1c(Cc2ccccc2)nc2cc(C(F)(F)F)ccc21`, the GI50 is 24.4 µM (inactive) in the test with NCI-H522; 18.6 µM (inactive) in the test on OVCAR-4; 20.5 µM (inactive) in the test on MCF7; 21.2 µM (inactive) with RXF 393; 17.7 µM (inactive) in the test on CAKI-1; 19.9 µM (inactive) in the test on T47D. Further, the GI50 in the test with OVCAR-3 was 27.9 µM (inactive); with MDA-MB-435, 15.9 µM (inactive); in the test with SNB-75 it was 52.8 µM (inactive); in the test with HOP-92, 20 µM (inactive); in the test on OVCAR-8 it was 39.7 µM (inactive); with TK-10, 28.8 µM (inactive). For the same molecule, the GI50 in the test on NCI-H460 is 19.6 µM (inactive); in the test with SK-OV-3, 23.5 µM (inactive); in the test on HCT-116, 18 µM (inactive); in the test on HCT-15 it was 24.8 µM; with MDA-N, 18.3 µM (inactive); with MOLT-4, 19.8 µM (inactive).
Consider `Cc1cc(S(=O)(=O)O)c(NC(=O)c2oc3cc(O)ccc3c(=O)c2C)cc1Cl`, for which the GI50 with NCI-H522, in the test with OVCAR-4, with MCF7, in the test on RXF 393, in the test on CAKI-1 and with T47D was > 100 µM (inactive) throughout. The GI50 with OVCAR-3, in the test with MDA-MB-435, in the test on SNB-75, in the test on OVCAR-8, in the test with TK-10 and in the test on NCI-H460 was > 100 µM (inactive) throughout. The GI50 in the test with HCC 2998 is > 100 µM (inactive); with SK-OV-3 it was > 100 µM (inactive); with HCT-116, > 100 µM (inactive); with HCT-15, more than 100 µM; in the test on MDA-N, > 100 µM (inactive); in the test with MOLT-4, > 100 µM (inactive).
As for `Cn1c2c(c3c(=O)[nH]ncc31)CCc1ccccc1-2`, the GI50 with NCI-H522 was 42.5 µM (inactive); in the test on OVCAR-4, 44.7 µM (inactive); in the test with MCF7, 21.6 µM (inactive); with RXF 393, 18.8 µM (inactive); in the test with CAKI-1, 32.1 µM (inactive); in the test with T47D it was 28.6 µM (inactive). The GI50 is 26.4 µM (inactive) in the test with OVCAR-3; 32.1 µM (inactive) in the test on MDA-MB-435; 21.2 µM (inactive) in the test with SNB-75; 44.8 µM (inactive) in the test on HOP-92; 57.3 µM (inactive) with OVCAR-8; 17.7 µM (inactive) in the test on TK-10. The GI50 with NCI-H460 is 16 µM (inactive); in the test with SK-OV-3, 61.1 µM (inactive); in the test with HCT-116, 20.1 µM (inactive); with HCT-15, 24.8 µM; in the test on MDA-N, 25.9 µM (inactive); in the test with MOLT-4, 21.8 µM (inactive).
As to `Cc1ccc(/C=C2/N/C(=N\N=C/C(O)C(O)C(O)CO)NC2=O)cc1` (stereo not given), the GI50 in the test with NCI-H522 was 71.6 µM (inactive); in the test with OVCAR-4 it was 33.1 µM (inactive) and 35.8 µM (inactive); in the test with MCF7, > 100 µM (inactive); with RXF 393, > 100 µM (inactive); in the test with CAKI-1 it was > 100 µM (inactive); in the test with T47D it was 79.4 µM (inactive). Further, the GI50 with OVCAR-3 was 52.4 µM (inactive) and 69.8 µM (inactive); with MDA-MB-435, > 100 µM (inactive); in the test with SNB-75, > 100 µM (inactive); in the test with HOP-92, > 100 µM (inactive); in the test on OVCAR-8 it was > 100 µM (inactive); in the test on TK-10 it was > 100 µM (inactive). In addition, the GI50 with NCI-H460 is > 100 µM (inactive); in the test with SK-OV-3, > 100 µM (inactive); with HCT-116 it was > 100 µM (inactive); with HCT-15, 89.9 µM and 79.1 µM; with MDA-N, > 100 µM (inactive).
Turning to `O=C1C2C(c3ccccc3)NC(c3ccccc3)C1C(c1ccccc1)NC2c1ccccc1` (stereo not given), the GI50 with NCI-H522, in the test with OVCAR-4, with MCF7, in the test on RXF 393, in the test on CAKI-1 and in the test with T47D was > 100 µM (inactive) each time. For the same molecule, the GI50 in the test on OVCAR-3, with MDA-MB-435, with SNB-75, in the test on HOP-92, in the test with OVCAR-8 and in the test on TK-10 was > 100 µM (inactive) each time. For the same molecule, the GI50 in the test on NCI-H460 is > 100 µM (inactive); in the test on SK-OV-3 it was > 100 µM (inactive); with HCT-116 it was > 100 µM (inactive); in the test with HCT-15 it was more than 100 µM; in the test with MDA-N it was > 100 µM (inactive); in the test with MOLT-4, > 100 µM (inactive).
For the molecule `Cc1ccc(C)n2c1nc1ccccc12`, the GI50 in the test with MCF7 is > 100 µM (inactive); in the test on RXF 393, 96.4 µM (inactive); with T47D it was > 100 µM (inactive); in the test with OVCAR-3, > 100 µM (inactive); in the test on MDA-MB-435, > 100 µM (inactive); in the test on SNB-75 it was 24.9 µM (inactive). Further, the GI50 in the test with HOP-92 was > 100 µM (inactive); with OVCAR-8, > 100 µM (inactive); in the test with TK-10 it was > 100 µM (inactive); with NCI-H460, 25.5 µM (inactive); in the test on HCC 2998, > 100 µM (inactive); in the test with SK-OV-3, > 100 µM (inactive). Moreover, the GI50 is > 10 µM (inactive) with HCT-116, more than 100 µM with HCT-15, > 100 µM (inactive) in the test on MDA-N and 62.4 µM (inactive) in the test with MOLT-4.
Take `c1ccc(CSSSCc2ccccc2)cc1` [DIBENZYL TRISULFIDE]: the GI50 is 0.363 µM (active) in the test on NCI-H522; 2.3 µM (inactive) in the test with OVCAR-4; 0.385 µM (active) with MCF7; 1.72 µM (inactive) in the test on RXF 393; 1.41 µM (inactive) in the test on CAKI-1; 19.8 µM (inactive) with T47D. Moreover, the GI50 in the test with OVCAR-3 was 0.423 µM (active); with MDA-MB-435, 0.568 µM (active); in the test with SNB-75, 7.18 µM (inactive); in the test with OVCAR-8 it was 1.15 µM (inactive); in the test with TK-10, 1.62 µM (inactive); with NCI-H460 it was 1.7 µM (inactive). In addition, the GI50 in the test with HCC 2998 was 5.58 µM (inactive); in the test on SK-OV-3, 3.61 µM (inactive); in the test on HCT-116, 0.272 µM (active); in the test on HCT-15 it was 0.581 µM; in the test on MDA-N, 1.25 µM (inactive); in the test with MOLT-4 it was 0.139 µM (active).
